Consider two compounds from publication PMC9246205, “Olmesartan medoxomil self-microemulsifying drug delivery system reverses apoptosis and improves cell adhesion in trinitrobenzene sulfonic acid-induced colitis in rats” (Drug Delivery, 2022).

What all share (assay type): in vivo, rat
Experiment [1] has as its system trinitrobenzene sulfonic acid-induced acute colitis. In words: Colonic macroscopic examination and colon weight/length ratio in TNBS-induced acute colitis. The settings on record: TNBS-colitic rats, 7 days; for Colon weight/length ratio: mean ± SEM, n = 8. As for the experimental part:
(§1) The rats were food-deprived for a day, and colitis was induced as previously described (Wang et al., [2010]). Rats were anesthetized with ether and then a 5% TNBS (Sigma, St Louis, USA) (100 mg/kg) dissolved in 0.25 mL of 50% ethanol (v/v) (2:1) was administered by a polyethylene catheter introduced rectally to 6–8 cm from the anus. Rats were set in a head-down position for 30 seconds to avoid leakage of the solution (Lu et al., [2017]). Rats were randomly divided into seven groups (n = 8) including the normal control (NC) group, TNBS-colitic (positive control, PC) group, and five TNBS-colitic-treated groups which were orally given sulfasalazine (SSZ, 100 mg/kg/day, a reference treatment for IBD) (Yousefi-Ahmadipour et al., [2020]), low and high doses of OM (OML and OMH: 3.0 and 10.0 mg/kg/day (Nagib et al., [2013])) as a raw drug and as an OMS (OMSL and OMSH). OM was suspended in distilled water containing 0.25% carboxymethyl cellulose (Gorain et al., [2014]; Komesli et al., [2019]). The treatments were given for 7 days starting 4 hours after TNBS administration (Lu et al., [2017]). Rats were evaluated for the colitis activity score. At end of the treatment period, blood was collected, and rats were sacrificed. The colon was excised, cleaned with ice-cold saline, measured for weight and length, and the macroscopic appearance was evaluated. Parts of the colon were homogenized and activities/levels of myeloperoxidase (MPO), tumor necrosis factor-α (TNF-α), interleukin-6 (IL-6), malondialdehyde (MDA), and reduced glutathione (GSH) were measured. The concentrations of olmesartan in plasma and colonic homogenate were measured by high performance liquid chromatography/mass spectrometry (HPLC/MS). Samples of the colon were obtained for hematoxylin and eosin (H&E) and immunohistochemical staining (Joo et al., [2015])). All evaluations were made by blinded observers.
The colon was measured for weight and length. The degree of colonic damage regarding edema, ulceration, bleeding, and necrosis was expressed as mild, moderate, or severe (Ghia et al., [2006]).

Experiment [2] concerns tumor necrosis factor-α (TNF-α). In words: Colonic TNF-α (ELISA, colon homogenate). The conditions noted are these: TNBS-colitic rats, 7 days, mean ± SEM, n = 8. As for the experimental part:
as §1, with “At end of the treatment period, blood was collected, and rats were sacrificed.” left out, “Samples of the colon were obtained for hematoxylin and eosin (H&E) and immunohistochemical staining (Joo et al., [2015])). All evaluations were made by blinded observers.” left out
(§2) The colonic samples were homogenized using phosphate-buffered saline and a TissueLyser II (Qiagen) at 4 °C to yield a 10% homogenate. […] The colonic protein content was determined by using the Bradford method (Bradford, 1976). The activities and/or levels of MPO (a marker for neutrophil infiltration), TNF-α, IL-6, MDA, and GSH were measured using ELISA kits (MyBioSource, Inc. CA, USA) according to the manufacturer's guidelines and were expressed/mg protein.
(In general: In an ELISA, binding on a coated surface is turned into a signal by an enzyme label.)

The next experiment concerns myeloperoxidase (MPO). The experiment is described as follows: Colonic MPO activity (ELISA, colon homogenate). The settings on record: TNBS-colitic rats, 7 days, mean ± SEM, n = 8. As for the experimental part: as §1, with “At end of the treatment period, blood was collected, and rats were sacrificed.” left out, “Samples of the colon were obtained for hematoxylin and eosin (H&E) and immunohistochemical staining (Joo et al., [2015])). All evaluations were made by blinded observers.” left out
as §2

For the next experiment, the system named is E-cadherin. In words: Colonic E-cadherin immunostaining. The settings on record: TNBS-colitic rats, 7 days. The protocol:
as §1, with “Samples of the colon were obtained for hematoxylin and eosin (H&E) and immunohistochemical staining (Joo et al., [2015])). All evaluations were made by blinded observers.” left out
(§3) Colonic sections were immunohistochemically stained for E-cadherin and Caspase-3 (ab13847; Abcam; 1:500 dilution). […] For MMP-9 immunostaining, the sections were probed with rabbit and mouse monoclonal anti-MMP-9 (1:150 dilution), detected with sheep anti-rabbit or anti-mouse IgG fluorescein isothiocyanate (1:500 dilution), and examined under a fluorescent microscope (Baugh et al., [1999]).

The test system of experiment [3] is matrix metalloproteinase-9 (MMP-9). In words: Colonic MMP-9 immunostaining. The settings on record: TNBS-colitic rats, 7 days. As for the experimental part:
as §1, with “Samples of the colon were obtained for hematoxylin and eosin (H&E) and immunohistochemical staining (Joo et al., [2015])). All evaluations were made by blinded observers.” left out
as §3

Another experiment relates to interleukin-6 (IL-6). In words: Colonic IL-6 (ELISA, colon homogenate). The settings on record: TNBS-colitic rats, 7 days, mean ± SEM, n = 8. The protocol: as §1, with “At end of the treatment period, blood was collected, and rats were sacrificed.” left out, “Samples of the colon were obtained for hematoxylin and eosin (H&E) and immunohistochemical staining (Joo et al., [2015])). All evaluations were made by blinded observers.” left out
as §2

Experiment [4] deals with reduced glutathione (GSH). In words: Colonic GSH (ELISA, colon homogenate). The conditions noted are these: TNBS-colitic rats, 7 days, mean ± SEM, n = 8. As for the experimental part:
as §1, with “At end of the treatment period, blood was collected, and rats were sacrificed.” left out, “Samples of the colon were obtained for hematoxylin and eosin (H&E) and immunohistochemical staining (Joo et al., [2015])). All evaluations were made by blinded observers.” left out
as §2

Experiment [5] concerns E-cadherin, Bax, Bcl-2, cleaved caspase-3. The experiment is described as follows: Western blot of colonic E-cadherin, Bax, Bcl-2 and cleaved caspase-3. The conditions noted are these: TNBS-colitic rats, 7 days. As for the experimental part:
as §1, with “observers. […]” for “observers.”
For orientation: A western blot detects proteins with antibodies after separation by electrophoresis.

The subject of another experiment is caspase-3. The experiment is described as follows: Colonic caspase-3 immunostaining. The settings on record: TNBS-colitic rats, 7 days. The protocol:
as §1, with “Samples of the colon were obtained for hematoxylin and eosin (H&E) and immunohistochemical staining (Joo et al., [2015])). All evaluations were made by blinded observers.” left out
as §3

The next experiment deals with malondialdehyde (MDA). The experiment is described as follows: Colonic MDA (ELISA, colon homogenate). The settings on record: TNBS-colitic rats, 7 days, mean ± SEM, n = 8. The protocol:
The rats were food-deprived for a day, and colitis was induced as previously described (Wang et al., [2010]). Rats were anesthetized with ether and then a 5% TNBS (Sigma, St Louis, USA) (100 mg/kg) dissolved in 0.25 mL of 50% ethanol (v/v) (2:1) was administered by a polyethylene catheter introduced rectally to 6–8 cm from the anus. Rats were set in a head-down position for 30 seconds to avoid leakage of the solution (Lu et al., [2017]). […] Rats were evaluated for the colitis activity score. […] The colon was excised, cleaned with ice-cold saline, measured for weight and length, and the macroscopic appearance was evaluated. Parts of the colon were homogenized and activities/levels of myeloperoxidase (MPO), tumor necrosis factor-α (TNF-α), interleukin-6 (IL-6), malondialdehyde (MDA), and reduced glutathione (GSH) were measured. The concentrations of olmesartan in plasma and colonic homogenate were measured by high performance liquid chromatography/mass spectrometry (HPLC/MS). […]
The colonic samples were homogenized using phosphate-buffered saline and a TissueLyser II (Qiagen) at 4 °C to yield a 10% homogenate. […] The colonic protein content was determined by using the Bradford method (Bradford, 1976). […]

Experiment [6] deals with trinitrobenzene sulfonic acid-induced acute colitis. The experiment is described as follows: Disease activity score in TNBS-induced acute colitis. The settings on record: TNBS-colitic rats, 7 days, mean ± SEM, n = 8. The protocol: as §1, with “All evaluations were made by blinded observers.” left out
The colitis activity index was measured to evaluate the activity of intestinal inflammation. The scores for weight loss, stool consistency, and fecal blood were calculated to give a disease activity score (DAS) as previously described (Wang et al., [2014]). […]

Experiment [7] has the same test system. The experiment is described as follows: Colonic histopathological examination (H&E). The settings on record: TNBS-colitic rats, 7 days. The protocol: as §1, with “All evaluations were made by blinded observers.” left out
The colonic parts were fixed in 10% buffered formalin and embedded in paraffin. Sections (3–5 µm) were prepared and stained with H&E. The degree of inflammation was expressed as mild, moderate, or severe (Wirtz et al., [2007]).

Setting [8] is: high dose 10.0 mg/kg/day orally.

Turning to `CCCc1nc(C(C)(C)O)c(C(=O)OCc2oc(=O)oc2C)n1Cc1ccc(-c2ccccc2-c2nnn[nH]2)cc1` [OM, Olmesartan medoxomil], the “colonic macroscopic appearance (damage)” value in [1] (setting [8]) is recorded as “moderate improvement”; in experiment [1] (low dose 3.0 mg/kg/day orally) it was “mild improvement”. The figures for the Colon weight/length ratio in experiment [1] (setting [8]) and in [1] (low dose 3.0 mg/kg/day orally) were 121.50 ± 6.91 # mg/cm and 176.63 ± 3.49 ^ mg/cm, respectively. Moreover, the TNF-α is on record as 51.45 ± 2.47 # pg/mg protein in [2] (setting [8]) and 69.98 ± 3.50 ^ pg/mg protein in [2] (low dose 3.0 mg/kg/day orally). The MPO activity in the experiment on myeloperoxidase (MPO) (setting [8]) is reported as 14.52 ± 0.61 # U/mg protein; in the experiment with myeloperoxidase (MPO) (low dose 3.0 mg/kg/day orally) it was 20.90 ± 1.06 ^ U/mg protein. For the same compound, the “colonic E-cadherin expression (immunostaining)” value in the experiment on E-cadherin (setting [8]) was “moderate improvement”; with E-cadherin (low dose 3.0 mg/kg/day orally), “mild improvement”. The figures for the “colonic MMP-9 overexpression (immunostaining)” value in experiment [3] (setting [8]) and in [3] (low dose 3.0 mg/kg/day orally) were “moderate improvement” and “mild improvement”, respectively. For the same compound, the IL-6 is on record as 122.43 ± 4.29 # pg/mg protein in the experiment with interleukin-6 (IL-6) (setting [8]) and 160.57 ± 5.73 ^ pg/mg protein with interleukin-6 (IL-6) (low dose 3.0 mg/kg/day orally). The GSH was 29.03 ± 1.44 # nmol/mg protein in [4] (setting [8]) and 19.77 ± 0.55 ^ nmol/mg protein in experiment [4] (low dose 3.0 mg/kg/day orally). Further, the “protein expression of colonic E-cadherin, Bax, Bcl-2, cleaved caspase-3 and Bcl-2/Bax ratio (Western blot)” value in experiment [5] (setting [8]) is given as “moderate improvements”; in [5] (low dose 3.0 mg/kg/day orally) it was “mild improvement”. Further, the “colonic caspase-3 expression (immunostaining)” value in the experiment on caspase-3 (setting [8]) is reported as “moderate improvement”; in the experiment on caspase-3 (low dose 3.0 mg/kg/day orally), “mild improvement”. Besides, the figures for the MDA with malondialdehyde (MDA) (setting [8]) and in the experiment with malondialdehyde (MDA) (low dose 3.0 mg/kg/day orally) were 149.57 ± 2.26 # nmol/mg protein and 221.25 ± 6.23 ^ nmol/mg protein, respectively. Moreover, the Disease activity score in [6] (setting [8]) is reported as 3.01 ± 0.25 #; in [6] (low dose 3.0 mg/kg/day orally), 5.69 ± 0.26 ^. Also, the figures for the “colonic histopathological damage (H&E)” value in experiment [7] (setting [8]) and in experiment [7] (low dose 3.0 mg/kg/day orally) were “moderate improvement” and “mild improvement”, respectively.
With `O=C(O)c1cc(/N=N/c2ccc(S(=O)(=O)Nc3ccccn3)cc2)ccc1O` [SSZ, sulfasalazine], in [1] (100 mg/kg/day orally), the “colonic macroscopic appearance (damage)” value is on record as “greatly improved” and the Colon weight/length ratio is recorded as 78.23 ± 2.11 $ mg/cm. Besides, the TNF-α in experiment [2] (100 mg/kg/day orally) is 20.49 ± 0.73 $ pg/mg protein. The MPO activity in the experiment with myeloperoxidase (MPO) (100 mg/kg/day orally) was 8.01 ± 0.30 $, @ U/mg protein. Besides, in the experiment on E-cadherin (100 mg/kg/day orally), the “colonic E-cadherin expression (immunostaining)” value is “greatly upregulated and nearly normalized”. The “colonic MMP-9 overexpression (immunostaining)” value in [3] (100 mg/kg/day orally) is given as “marked improvement”. Besides, the IL-6 with interleukin-6 (IL-6) (100 mg/kg/day orally) is on record as 65.06 ± 1.46 $ pg/mg protein. Also, the GSH in [4] (100 mg/kg/day orally) was 39.75 ± 1.38 $ nmol/mg protein. Also, the “protein expression of colonic E-cadherin, Bax, Bcl-2, cleaved caspase-3 and Bcl-2/Bax ratio (Western blot)” value in [5] (100 mg/kg/day orally) was “marked improvement”. In addition, in the experiment with caspase-3 (100 mg/kg/day orally), the “colonic caspase-3 expression (immunostaining)” value was “greatly decreased and nearly normalized”. In experiment [6] (100 mg/kg/day orally), the Disease activity score is reported as 0.45 ± 0.06 $. Besides, in experiment [7] (100 mg/kg/day orally), the “colonic histopathological damage (H&E)” value was “nearly normalized the colonic damage”.
